Experimental findings from patent US8757784B2, “Ink for ink jet recording and recording method” (Seiko Epson Corporation, priority 2012, dated 2014) are described below.

This series is described as follows: logP value (octanol/water distribution). The source says: Herein, the “logP value” is an index that represents hydrophobicity of a compound. The logP value represents, in an octanol/water system, in which ratio a solute is distributed in these two layers. In other words, when the logP value of the solute is bigger, the hydrophobicity is higher and the solute is well dissolved in an octanol phase.
For example, the logP value can be determined using a flask shaking method using the solute and two types of solvents being actually placed in a flask and mixed by shaking the flask well, or a HPLC method using a high performance liquid chromatography (HPLC).

Where [1] appears, read: octanol/water, logP value, octanol/water system.

As a reminder, the logP is a log measure of how a compound divides between an organic and an aqueous phase.

Compound `CCC(O)CO` (stereo not shown) [1,2-butanediol] came in with a logP under setting [1] of -0.32.

`CCCCC(O)CO` (stereo not shown) [1,2-hexanediol] gave a logP under setting [1] of 0.5.

With `CCCC(O)CO` (stereo not shown) [1,2-pentanediol], under setting [1], the logP was 0.01.

As to `CCC(O)CCO` (stereo not shown) [1,3-pentanediol], the logP under setting [1] is -0.16.

In turn, `OCCCO` [1,3-propanediol] yielded a logP value (octanol/water system) of −1.33.

The compound `OCCCCO` [1,4-butanediol] registered a logP of 0.5 and a logP value of 0.50.

`CCCC(=O)OCC(O)CO` (stereo not shown) [1-butanoyl glycerol]: the logP under setting [1] came out at 0.

Take `CC(C)C(O)C(C)(C)CO` (stereo not shown) [2,2,4-trimethyl-1,3-pentanediol]: the log partition coefficient (logP) was 2.

The compound `CC(C)(CO)CO` [2,2-dimethyl-1,3-propanediol] displayed a logP under setting [1] of -0.3.

Regarding `CC(O)C(C)O` (stereo not shown) [2,3-butanediol], the logP was -0.36.

`CC(C)(O)CCC(C)(C)O` [2,5-dimethyl-2,5-hexanediol] had a logP under setting [1] of 1.53.

`CC(O)CCC(C)O` (stereo not shown) [2,5-hexanediol] returned a logP under setting [1] of 0.62.

Under setting [1], `CCCCC(CC)(CO)CO` [2-butyl-2-ethyl-1,3-propanediol] returned a logP of 2.1.

For `CC(C)(O)CO` [2-methyl-1,2-propanediol], the lipophilicity (logP) under setting [1] is 0.026.

Under setting [1], `CC(CO)CO` [2-methyl-1,3-propanediol] came in with a logP of -0.6.

In turn, `CC(O)CC(C)(C)O` (stereo not shown) [2-methyl-2,4-pentanediol] yielded a logP under setting [1] of 0.88.

Under setting [1], `CC(C)(O)CCO` [3-methyl-1,3-butanediol] had a logP of -0.33.

For the compound `CC(CCO)CCO` [3-methyl-1,5-pentanediol], the logP under setting [1] is -0.2.

As to `OCC(O)CO` [glycerin], the logP value (octanol/water system) is −2.70.

For `CC(O)CO` (stereo not shown) [propylene glycol], under setting [1], the logP is -0.92.

`CCC(CO)(CO)CO` [trimethylol propane] displayed a logP value (octanol/water system) of −0.47.
